According to the supplement of paper PMC10307832:

Assays:
Experiment in all cases: relative viability (nuclei count vs DMSO), 5 days (fraction); higher = more cells survive
ABC-1 = tested on: ABC-1
Method in brief: (§1)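 Cells from lung cancer lines were seeded into 1536-well plates and, one day later, dosed by pin tool. Treatments were either a single drug or a fixed dose of an anchor drug with five library-drug doses (not always all listed) in √10 steps. After 5 days, nuclei were stained in a one-step fixation (final 0.05% Triton X-100, 1% formaldehyde, 1 ug/ml Hoechst) and counted on 4× images, and relative viability is the treated-to-vehicle nuclei ratio, as the median of duplicate plates.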

ChaGo-K-1 = tested on: ChaGo-K-1
Method in brief: as §1

HCC-78 = tested on: HCC-78
Method in brief: as §1

HOP-62 = tested on: HOP-62
Method in brief: as §1

LCLC-97TM1 = tested on: LCLC-97TM1
Method in brief: as §1

LOU-NH91 = tested on: LOU-NH91
Method in brief: as §1

NCI-H1355 = tested on: NCI-H1355
Method in brief: as §1

NCI-H1437 = tested on: NCI-H1437
Method in brief: as §1

NCI-H1648 = tested on: NCI-H1648
Method in brief: as §1

NCI-H1755 = tested on: NCI-H1755
Method in brief: as §1

NCI-H2009 = tested on: NCI-H2009
Method in brief: as §1

NCI-H2023 = tested on: NCI-H2023
Method in brief: as §1

NCI-H2085 = tested on: NCI-H2085
Method in brief: as §1

NCI-H2170 = tested on: NCI-H2170
Method in brief: as §1

NCI-H2342 = tested on: NCI-H2342
Method in brief: as §1

NCI-H23 = tested on: NCI-H23
Method in brief: as §1

NCI-H2405 = tested on: NCI-H2405
Method in brief: as §1

NCI-H322M = tested on: NCI-H322M
Method in brief: as §1

NCI-H650 = tested on: NCI-H650
Method in brief: as §1

NCI-H727 = tested on: NCI-H727
Method in brief: as §1

RERF-LC-KJ = tested on: RERF-LC-KJ
Method in brief: as §1

SK-MES-1 = tested on: SK-MES-1
Method in brief: as §1

UMC-11 = tested on: UMC-11
Method in brief: as §1

Which relative viability (ABC-1; first compound 0.08 µM) does the source give for `CCCCCCCCCCCC1=C(O)C(=O)C=C(O)C1=O` [Embelin] + O=C(CCCCCCC(=O)Nc1ccccc1)NO [Vorinostat] (partner 1 µM) here?
Its relative viability is 1.04.

What about the relative viability (ABC-1; first compound 0.8 µM) of the same molecule?
Its relative viability is 1.48.

And the relative viability (ABC-1; first compound 2.53 µM)?
Its relative viability is 0.955.

And the relative viability (ABC-1; first compound 8 µM)?
Its relative viability is 0.86.

What about the relative viability (ChaGo-K-1; first compound 0.08 µM) of the same molecule?
The relative viability was 0.739.

What about the relative viability (ChaGo-K-1; first compound 0.8 µM) of the same molecule?
The relative viability was 0.782.

What about the relative viability (ChaGo-K-1; first compound 2.53 µM) of the same molecule?
Its relative viability is 0.871.

What about the relative viability (ChaGo-K-1; first compound 8 µM) of the same molecule?
Its relative viability is 0.755.

What about the relative viability (HCC-78; first compound 0.08 µM) of the same molecule?
Its relative viability is 0.467.

What about the relative viability (HCC-78; first compound 0.8 µM) of the same molecule?
Its relative viability is 0.547.

And the relative viability (HCC-78; first compound 2.53 µM)?
The relative viability was 0.553.

What about the relative viability (HCC-78; first compound 8 µM) of the same molecule?
The relative viability was 0.401.

And the relative viability (HOP-62; first compound 0.08 µM)?
The relative viability was 0.634.

What about the relative viability (HOP-62; first compound 0.8 µM) of the same molecule?
The relative viability was 0.812.

What about the relative viability (HOP-62; first compound 2.53 µM) of the same molecule?
Its relative viability is 0.504.

And the relative viability (HOP-62; first compound 8 µM)?
Its relative viability is 0.527.

What about the relative viability (LCLC-97TM1; first compound 0.08 µM) of the same molecule?
Its relative viability is 0.789.

And the relative viability (LCLC-97TM1; first compound 0.8 µM)?
The relative viability was 1.16.

And the relative viability (LCLC-97TM1; first compound 2.53 µM)?
Its relative viability is 0.652.

What about the relative viability (LCLC-97TM1; first compound 8 µM) of the same molecule?
The relative viability was 0.496.

What about the relative viability (LOU-NH91; first compound 0.08 µM) of the same molecule?
The relative viability was 0.939.

And the relative viability (LOU-NH91; first compound 0.8 µM)?
Its relative viability is 1.2.

And the relative viability (LOU-NH91; first compound 2.53 µM)?
The relative viability was 0.933.

And the relative viability (LOU-NH91; first compound 8 µM)?
Its relative viability is 0.876.

What about the relative viability (NCI-H1355; first compound 0.08 µM) of the same molecule?
Its relative viability is 0.649.

And the relative viability (NCI-H1355; first compound 0.8 µM)?
Its relative viability is 0.699.

What about the relative viability (NCI-H1355; first compound 2.53 µM) of the same molecule?
Its relative viability is 0.636.

What about the relative viability (NCI-H1355; first compound 8 µM) of the same molecule?
Its relative viability is 0.523.

What about the relative viability (NCI-H1437; first compound 0.08 µM) of the same molecule?
The relative viability was 0.83.

And the relative viability (NCI-H1437; first compound 0.8 µM)?
Its relative viability is 0.943.

And the relative viability (NCI-H1437; first compound 2.53 µM)?
The relative viability was 0.853.

What about the relative viability (NCI-H1437; first compound 8 µM) of the same molecule?
The relative viability was 0.392.

And the relative viability (NCI-H1648; first compound 0.08 µM)?
Its relative viability is 0.464.

And the relative viability (NCI-H1648; first compound 0.8 µM)?
The relative viability was 0.908.

What about the relative viability (NCI-H1648; first compound 2.53 µM) of the same molecule?
The relative viability was 0.487.

What about the relative viability (NCI-H1648; first compound 8 µM) of the same molecule?
Its relative viability is 0.699.

What about the relative viability (NCI-H1755; first compound 0.08 µM) of the same molecule?
Its relative viability is 0.723.

And the relative viability (NCI-H1755; first compound 0.8 µM)?
Its relative viability is 0.813.

What about the relative viability (NCI-H1755; first compound 2.53 µM) of the same molecule?
Its relative viability is 0.809.

And the relative viability (NCI-H1755; first compound 8 µM)?
The relative viability was 0.574.

What about the relative viability (NCI-H2009; first compound 0.08 µM) of the same molecule?
The relative viability was 0.748.

And the relative viability (NCI-H2009; first compound 0.8 µM)?
Its relative viability is 0.837.

And the relative viability (NCI-H2009; first compound 2.53 µM)?
Its relative viability is 0.705.

What about the relative viability (NCI-H2009; first compound 8 µM) of the same molecule?
Its relative viability is 0.748.

What about the relative viability (NCI-H2023; first compound 0.08 µM) of the same molecule?
The relative viability was 0.622.

What about the relative viability (NCI-H2023; first compound 0.8 µM) of the same molecule?
The relative viability was 0.701.

What about the relative viability (NCI-H2023; first compound 2.53 µM) of the same molecule?
The relative viability was 0.565.

And the relative viability (NCI-H2023; first compound 8 µM)?
The relative viability was 0.392.

And the relative viability (NCI-H2085; first compound 0.08 µM)?
The relative viability was 0.742.

And the relative viability (NCI-H2085; first compound 0.8 µM)?
The relative viability was 0.932.

What about the relative viability (NCI-H2085; first compound 2.53 µM) of the same molecule?
The relative viability was 0.807.

And the relative viability (NCI-H2085; first compound 8 µM)?
Its relative viability is 0.755.

What about the relative viability (NCI-H2170; first compound 0.08 µM) of the same molecule?
The relative viability was 0.773.

And the relative viability (NCI-H2170; first compound 0.8 µM)?
Its relative viability is 0.784.

What about the relative viability (NCI-H2170; first compound 2.53 µM) of the same molecule?
Its relative viability is 0.922.

What about the relative viability (NCI-H2170; first compound 8 µM) of the same molecule?
Its relative viability is 0.754.

What about the relative viability (NCI-H2342; first compound 0.08 µM) of the same molecule?
The relative viability was 0.766.

And the relative viability (NCI-H2342; first compound 0.8 µM)?
The relative viability was 0.828.

What about the relative viability (NCI-H2342; first compound 2.53 µM) of the same molecule?
Its relative viability is 0.887.

And the relative viability (NCI-H2342; first compound 8 µM)?
Its relative viability is 0.73.

What about the relative viability (NCI-H23; first compound 0.08 µM) of the same molecule?
Its relative viability is 0.58.

And the relative viability (NCI-H23; first compound 0.8 µM)?
Its relative viability is 0.604.

And the relative viability (NCI-H23; first compound 2.53 µM)?
The relative viability was 0.584.

What about the relative viability (NCI-H23; first compound 8 µM) of the same molecule?
Its relative viability is 0.433.

And the relative viability (NCI-H2405; first compound 0.08 µM)?
Its relative viability is 1.01.

And the relative viability (NCI-H2405; first compound 0.8 µM)?
Its relative viability is 1.13.

What about the relative viability (NCI-H2405; first compound 2.53 µM) of the same molecule?
The relative viability was 0.95.

What about the relative viability (NCI-H2405; first compound 8 µM) of the same molecule?
The relative viability was 0.899.

And the relative viability (NCI-H322M; first compound 0.08 µM)?
Its relative viability is 0.873.

And the relative viability (NCI-H322M; first compound 0.8 µM)?
Its relative viability is 0.954.

What about the relative viability (NCI-H322M; first compound 2.53 µM) of the same molecule?
Its relative viability is 1.01.

What about the relative viability (NCI-H322M; first compound 8 µM) of the same molecule?
The relative viability was 0.801.

And the relative viability (NCI-H650; first compound 0.08 µM)?
The relative viability was 0.393.

And the relative viability (NCI-H650; first compound 0.8 µM)?
The relative viability was 0.557.

And the relative viability (NCI-H650; first compound 2.53 µM)?
The relative viability was 0.354.

What about the relative viability (NCI-H650; first compound 8 µM) of the same molecule?
The relative viability was 0.484.

What about the relative viability (NCI-H727; first compound 0.08 µM) of the same molecule?
The relative viability was 1.31.

What about the relative viability (NCI-H727; first compound 0.8 µM) of the same molecule?
Its relative viability is 1.11.

And the relative viability (NCI-H727; first compound 2.53 µM)?
Its relative viability is 1.32.

What about the relative viability (NCI-H727; first compound 8 µM) of the same molecule?
The relative viability was 1.22.

And the relative viability (RERF-LC-KJ; first compound 0.08 µM)?
The relative viability was 0.673.

And the relative viability (RERF-LC-KJ; first compound 0.8 µM)?
The relative viability was 0.769.

And the relative viability (RERF-LC-KJ; first compound 2.53 µM)?
The relative viability was 0.681.

What about the relative viability (RERF-LC-KJ; first compound 8 µM) of the same molecule?
Its relative viability is 0.603.

What about the relative viability (SK-MES-1; first compound 0.08 µM) of the same molecule?
Its relative viability is 1.1.

What about the relative viability (SK-MES-1; first compound 0.8 µM) of the same molecule?
Its relative viability is 1.2.

And the relative viability (SK-MES-1; first compound 2.53 µM)?
The relative viability was 1.1.

What about the relative viability (SK-MES-1; first compound 8 µM) of the same molecule?
Its relative viability is 0.898.

And the relative viability (UMC-11; first compound 0.08 µM)?
Its relative viability is 0.39.

And the relative viability (UMC-11; first compound 0.8 µM)?
Its relative viability is 0.407.

What about the relative viability (UMC-11; first compound 2.53 µM) of the same molecule?
Its relative viability is 0.372.

And the relative viability (UMC-11; first compound 8 µM)?
Its relative viability is 0.393.
